Results on 23 compounds are retold here after ChEMBL document CHEMBL5291721, “A preclinical secondary pharmacology resource illuminates target-adverse drug reaction associations of marketed drugs” (Nat Commun, 2023).

Assay [1] deals with T1, Muscarinic acetylcholine receptor M1 (Homo sapiens, UniProt P11229).
T1 sequence (P11229 whole entry): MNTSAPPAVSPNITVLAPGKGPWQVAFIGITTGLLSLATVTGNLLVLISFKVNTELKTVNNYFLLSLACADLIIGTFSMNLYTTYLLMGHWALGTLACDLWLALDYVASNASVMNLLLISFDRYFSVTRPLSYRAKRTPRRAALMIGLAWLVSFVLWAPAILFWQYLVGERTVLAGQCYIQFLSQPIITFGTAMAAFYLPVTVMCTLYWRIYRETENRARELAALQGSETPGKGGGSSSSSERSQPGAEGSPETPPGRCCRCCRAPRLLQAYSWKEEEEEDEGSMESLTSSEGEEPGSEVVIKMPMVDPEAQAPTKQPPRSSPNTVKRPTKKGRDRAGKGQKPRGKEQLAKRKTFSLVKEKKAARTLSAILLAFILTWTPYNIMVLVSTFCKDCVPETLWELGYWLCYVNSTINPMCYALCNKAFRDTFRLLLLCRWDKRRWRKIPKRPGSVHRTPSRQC
The format is functional, cell-based.

Assay [2] concerns the target T1, Muscarinic acetylcholine receptor M1. The format is functional, cell-based. This is another data set of the same source.
The target of assay [3] is Sodium-dependent serotonin transporter (Homo sapiens, UniProt P31645).
Chain of Sodium-dependent serotonin transporter (P31645 whole entry): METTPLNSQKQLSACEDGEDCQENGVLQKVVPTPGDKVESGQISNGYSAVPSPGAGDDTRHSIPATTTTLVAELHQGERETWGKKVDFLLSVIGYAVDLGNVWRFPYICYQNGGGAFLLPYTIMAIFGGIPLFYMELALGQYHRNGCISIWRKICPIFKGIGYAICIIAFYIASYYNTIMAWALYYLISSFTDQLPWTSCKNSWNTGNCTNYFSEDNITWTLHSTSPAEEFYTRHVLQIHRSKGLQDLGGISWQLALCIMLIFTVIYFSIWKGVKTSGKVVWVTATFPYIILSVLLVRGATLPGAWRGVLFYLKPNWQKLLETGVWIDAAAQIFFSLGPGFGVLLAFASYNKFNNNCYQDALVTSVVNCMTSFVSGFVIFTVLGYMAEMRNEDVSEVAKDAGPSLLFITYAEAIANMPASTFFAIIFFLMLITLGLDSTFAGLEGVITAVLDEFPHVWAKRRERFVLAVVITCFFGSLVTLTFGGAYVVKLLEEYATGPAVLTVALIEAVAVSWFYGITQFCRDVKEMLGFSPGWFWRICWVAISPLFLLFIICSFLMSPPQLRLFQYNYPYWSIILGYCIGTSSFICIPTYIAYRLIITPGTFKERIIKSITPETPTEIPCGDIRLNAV
The target in assay [4] is Beta-1 adrenergic receptor (Homo sapiens, UniProt P08588). The format is functional.
Chain of Beta-1 adrenergic receptor (P08588 whole entry): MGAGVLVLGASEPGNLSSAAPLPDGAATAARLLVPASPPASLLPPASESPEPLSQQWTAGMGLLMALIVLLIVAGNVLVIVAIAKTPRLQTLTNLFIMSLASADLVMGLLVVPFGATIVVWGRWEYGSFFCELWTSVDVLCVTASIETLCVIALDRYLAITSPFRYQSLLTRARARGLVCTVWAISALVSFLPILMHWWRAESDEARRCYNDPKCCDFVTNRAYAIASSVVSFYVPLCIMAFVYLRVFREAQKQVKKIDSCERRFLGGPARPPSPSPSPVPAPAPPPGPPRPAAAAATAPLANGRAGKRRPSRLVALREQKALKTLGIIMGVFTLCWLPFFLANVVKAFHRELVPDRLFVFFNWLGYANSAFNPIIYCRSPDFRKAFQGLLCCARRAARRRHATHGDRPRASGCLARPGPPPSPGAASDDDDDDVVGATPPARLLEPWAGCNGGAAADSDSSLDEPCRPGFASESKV
The next assay has as its target Vasopressin V2 receptor (Homo sapiens, UniProt P30518).
Another assay addresses Cannabinoid receptor 1 (Homo sapiens, UniProt P21554). The class given is functional, cell-based.
The target of assay [5] is Gamma-aminobutyric acid receptor subunit alpha-1 (Rattus norvegicus, UniProt P62813). The format is functional.
Chain of Gamma-aminobutyric acid receptor subunit alpha-1 (P62813 whole entry): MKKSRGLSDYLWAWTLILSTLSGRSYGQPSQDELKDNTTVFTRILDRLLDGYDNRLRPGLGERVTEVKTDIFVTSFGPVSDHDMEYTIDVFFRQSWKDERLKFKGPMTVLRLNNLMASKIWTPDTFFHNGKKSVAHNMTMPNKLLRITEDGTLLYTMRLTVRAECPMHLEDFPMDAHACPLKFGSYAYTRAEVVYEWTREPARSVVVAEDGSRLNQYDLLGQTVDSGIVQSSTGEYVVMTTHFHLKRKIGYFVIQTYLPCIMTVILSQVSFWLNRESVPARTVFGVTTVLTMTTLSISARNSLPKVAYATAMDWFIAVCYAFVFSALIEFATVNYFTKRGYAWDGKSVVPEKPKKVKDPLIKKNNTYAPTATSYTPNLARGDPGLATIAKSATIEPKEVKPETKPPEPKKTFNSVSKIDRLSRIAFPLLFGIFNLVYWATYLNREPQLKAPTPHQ
Another assay deals with Histamine H2 receptor (Homo sapiens, UniProt P25021). The format is functional, cell-based.
Chain of Histamine H2 receptor (P25021 whole entry): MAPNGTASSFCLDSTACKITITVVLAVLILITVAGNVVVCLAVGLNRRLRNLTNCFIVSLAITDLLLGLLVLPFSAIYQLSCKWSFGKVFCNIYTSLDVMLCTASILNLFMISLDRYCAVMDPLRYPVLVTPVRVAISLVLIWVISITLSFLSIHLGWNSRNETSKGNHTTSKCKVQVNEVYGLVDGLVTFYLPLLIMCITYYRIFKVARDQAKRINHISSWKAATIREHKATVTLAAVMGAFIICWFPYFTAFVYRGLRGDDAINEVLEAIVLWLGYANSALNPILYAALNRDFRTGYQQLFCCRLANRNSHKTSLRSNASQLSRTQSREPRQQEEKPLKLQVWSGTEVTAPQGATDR
For assay [6], the target named is 5-hydroxytryptamine receptor 2B (Homo sapiens, UniProt P41595). The format is functional, cell-based.
Chain of 5-hydroxytryptamine receptor 2B (P41595 whole entry): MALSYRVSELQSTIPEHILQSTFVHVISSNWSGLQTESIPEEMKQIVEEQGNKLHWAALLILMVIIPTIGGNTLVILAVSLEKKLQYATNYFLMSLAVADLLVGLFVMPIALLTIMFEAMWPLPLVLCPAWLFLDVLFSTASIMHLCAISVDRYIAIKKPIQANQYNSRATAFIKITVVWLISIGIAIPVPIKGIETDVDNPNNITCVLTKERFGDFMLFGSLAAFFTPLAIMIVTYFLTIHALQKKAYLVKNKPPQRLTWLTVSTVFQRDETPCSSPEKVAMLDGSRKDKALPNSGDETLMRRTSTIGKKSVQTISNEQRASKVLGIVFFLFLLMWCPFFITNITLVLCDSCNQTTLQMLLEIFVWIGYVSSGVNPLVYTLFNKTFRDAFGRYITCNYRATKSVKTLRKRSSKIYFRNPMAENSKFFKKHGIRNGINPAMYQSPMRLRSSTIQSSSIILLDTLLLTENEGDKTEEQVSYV
Assay [7] addresses T2, Neuropeptide Y receptor type 1 (Homo sapiens, UniProt P25929).
T2 sequence (P25929 whole entry): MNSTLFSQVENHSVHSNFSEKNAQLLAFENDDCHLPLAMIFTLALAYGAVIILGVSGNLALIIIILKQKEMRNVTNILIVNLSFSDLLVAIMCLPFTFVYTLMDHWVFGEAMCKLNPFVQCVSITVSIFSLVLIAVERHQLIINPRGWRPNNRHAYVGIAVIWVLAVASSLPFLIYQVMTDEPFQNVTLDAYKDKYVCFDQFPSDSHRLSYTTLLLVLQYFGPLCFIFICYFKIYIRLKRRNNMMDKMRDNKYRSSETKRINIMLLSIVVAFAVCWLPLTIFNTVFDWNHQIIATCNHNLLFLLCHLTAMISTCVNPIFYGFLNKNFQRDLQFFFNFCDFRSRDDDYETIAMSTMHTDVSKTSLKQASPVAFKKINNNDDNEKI

The target of assay [8] is Delta-type opioid receptor (Homo sapiens, UniProt P41143).
Chain of Delta-type opioid receptor (P41143 whole entry): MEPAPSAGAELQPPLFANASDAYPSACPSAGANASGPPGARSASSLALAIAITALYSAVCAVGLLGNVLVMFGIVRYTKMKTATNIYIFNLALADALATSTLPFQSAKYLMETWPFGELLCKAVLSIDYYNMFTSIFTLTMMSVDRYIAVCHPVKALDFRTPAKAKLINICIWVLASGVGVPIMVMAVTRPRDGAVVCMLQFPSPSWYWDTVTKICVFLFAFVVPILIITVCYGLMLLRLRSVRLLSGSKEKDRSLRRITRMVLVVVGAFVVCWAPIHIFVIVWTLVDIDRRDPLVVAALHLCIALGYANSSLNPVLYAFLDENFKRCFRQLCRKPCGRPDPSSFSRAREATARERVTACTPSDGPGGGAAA
The target in assay [9] is T3, Equilibrative nucleoside transporter 1 (Homo sapiens, UniProt Q99808).
T3 sequence (Q99808 whole entry): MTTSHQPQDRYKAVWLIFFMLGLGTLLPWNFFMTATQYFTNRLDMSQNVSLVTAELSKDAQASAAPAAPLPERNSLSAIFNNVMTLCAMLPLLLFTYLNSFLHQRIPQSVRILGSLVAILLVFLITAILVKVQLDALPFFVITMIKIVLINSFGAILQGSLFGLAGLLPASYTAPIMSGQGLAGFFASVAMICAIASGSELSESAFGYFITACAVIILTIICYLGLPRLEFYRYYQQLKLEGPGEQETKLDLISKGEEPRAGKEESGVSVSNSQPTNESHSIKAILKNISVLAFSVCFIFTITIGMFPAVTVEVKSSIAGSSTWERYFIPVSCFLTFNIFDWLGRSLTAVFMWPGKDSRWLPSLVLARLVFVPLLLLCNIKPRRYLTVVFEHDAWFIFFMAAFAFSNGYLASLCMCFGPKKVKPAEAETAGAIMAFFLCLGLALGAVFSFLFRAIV

Assay [10] has as its target Sodium-dependent noradrenaline transporter (Homo sapiens, UniProt P23975).
The target of assay [11] is T4, Amine oxidase [flavin-containing] A (Homo sapiens, UniProt P21397).
T4 sequence (P21397 whole entry): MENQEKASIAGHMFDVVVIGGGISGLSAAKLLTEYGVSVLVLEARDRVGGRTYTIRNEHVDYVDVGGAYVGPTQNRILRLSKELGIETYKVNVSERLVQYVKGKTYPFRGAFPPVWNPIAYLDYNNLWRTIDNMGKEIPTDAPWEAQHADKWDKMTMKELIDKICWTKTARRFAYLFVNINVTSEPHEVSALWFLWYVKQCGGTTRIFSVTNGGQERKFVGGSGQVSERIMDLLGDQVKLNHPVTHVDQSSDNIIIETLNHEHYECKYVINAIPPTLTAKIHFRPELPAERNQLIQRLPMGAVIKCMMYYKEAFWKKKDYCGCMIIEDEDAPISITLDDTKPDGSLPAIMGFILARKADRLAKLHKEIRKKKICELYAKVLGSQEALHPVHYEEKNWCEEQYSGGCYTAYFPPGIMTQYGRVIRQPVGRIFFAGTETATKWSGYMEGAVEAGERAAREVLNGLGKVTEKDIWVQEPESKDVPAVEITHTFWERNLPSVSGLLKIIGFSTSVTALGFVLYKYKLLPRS
The class given is functional.

Assay [12] deals with cGMP-inhibited 3',5'-cyclic phosphodiesterase 3A (Homo sapiens, UniProt Q14432). The class given is functional.
Chain of cGMP-inhibited 3',5'-cyclic phosphodiesterase 3A (Q14432 whole entry): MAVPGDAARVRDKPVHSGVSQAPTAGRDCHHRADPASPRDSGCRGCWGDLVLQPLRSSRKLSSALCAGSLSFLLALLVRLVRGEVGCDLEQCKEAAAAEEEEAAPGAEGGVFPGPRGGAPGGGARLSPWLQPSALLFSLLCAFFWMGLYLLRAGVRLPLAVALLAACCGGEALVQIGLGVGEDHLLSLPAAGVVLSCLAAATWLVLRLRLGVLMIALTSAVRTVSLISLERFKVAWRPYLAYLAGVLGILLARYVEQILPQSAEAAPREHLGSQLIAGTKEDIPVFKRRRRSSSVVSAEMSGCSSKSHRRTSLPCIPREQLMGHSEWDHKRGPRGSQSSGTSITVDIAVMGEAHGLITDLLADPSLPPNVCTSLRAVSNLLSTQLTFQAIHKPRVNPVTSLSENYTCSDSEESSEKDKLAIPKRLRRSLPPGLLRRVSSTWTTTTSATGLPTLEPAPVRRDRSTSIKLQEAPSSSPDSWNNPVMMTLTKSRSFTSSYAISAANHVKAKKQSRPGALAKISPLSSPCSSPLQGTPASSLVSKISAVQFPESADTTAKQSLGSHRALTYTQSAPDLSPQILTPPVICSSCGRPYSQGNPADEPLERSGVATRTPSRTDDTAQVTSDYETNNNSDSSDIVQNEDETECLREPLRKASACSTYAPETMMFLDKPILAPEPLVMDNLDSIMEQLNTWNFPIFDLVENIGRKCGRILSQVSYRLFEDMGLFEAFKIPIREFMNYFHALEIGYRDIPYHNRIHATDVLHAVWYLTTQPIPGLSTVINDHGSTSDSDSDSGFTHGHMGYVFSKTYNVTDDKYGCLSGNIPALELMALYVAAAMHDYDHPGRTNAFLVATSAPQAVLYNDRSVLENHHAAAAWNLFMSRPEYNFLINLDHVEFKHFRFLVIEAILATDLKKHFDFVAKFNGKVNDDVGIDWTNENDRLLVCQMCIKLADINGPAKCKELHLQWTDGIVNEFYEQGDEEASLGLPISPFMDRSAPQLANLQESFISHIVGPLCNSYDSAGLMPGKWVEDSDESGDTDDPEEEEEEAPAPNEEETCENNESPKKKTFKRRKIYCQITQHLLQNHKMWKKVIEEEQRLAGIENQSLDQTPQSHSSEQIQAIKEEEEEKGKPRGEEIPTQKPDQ

Each structure is given as a SMILES string.
Further: assay procedure not described here.

Chain of Cannabinoid receptor 1 (P21554 whole entry): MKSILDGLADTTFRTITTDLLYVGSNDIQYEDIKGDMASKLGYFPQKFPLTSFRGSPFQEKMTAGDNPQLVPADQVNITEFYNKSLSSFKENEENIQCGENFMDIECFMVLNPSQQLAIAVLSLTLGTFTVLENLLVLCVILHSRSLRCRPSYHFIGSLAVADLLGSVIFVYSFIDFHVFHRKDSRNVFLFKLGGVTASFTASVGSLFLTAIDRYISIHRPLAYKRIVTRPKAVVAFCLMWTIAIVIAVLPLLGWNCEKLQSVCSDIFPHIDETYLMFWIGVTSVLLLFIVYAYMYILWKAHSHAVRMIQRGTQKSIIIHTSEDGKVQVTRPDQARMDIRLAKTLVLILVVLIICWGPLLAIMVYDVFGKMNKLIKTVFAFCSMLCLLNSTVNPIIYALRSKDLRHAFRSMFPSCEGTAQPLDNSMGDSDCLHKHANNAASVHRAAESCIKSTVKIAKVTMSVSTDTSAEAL
Chain of Sodium-dependent noradrenaline transporter (P23975 whole entry): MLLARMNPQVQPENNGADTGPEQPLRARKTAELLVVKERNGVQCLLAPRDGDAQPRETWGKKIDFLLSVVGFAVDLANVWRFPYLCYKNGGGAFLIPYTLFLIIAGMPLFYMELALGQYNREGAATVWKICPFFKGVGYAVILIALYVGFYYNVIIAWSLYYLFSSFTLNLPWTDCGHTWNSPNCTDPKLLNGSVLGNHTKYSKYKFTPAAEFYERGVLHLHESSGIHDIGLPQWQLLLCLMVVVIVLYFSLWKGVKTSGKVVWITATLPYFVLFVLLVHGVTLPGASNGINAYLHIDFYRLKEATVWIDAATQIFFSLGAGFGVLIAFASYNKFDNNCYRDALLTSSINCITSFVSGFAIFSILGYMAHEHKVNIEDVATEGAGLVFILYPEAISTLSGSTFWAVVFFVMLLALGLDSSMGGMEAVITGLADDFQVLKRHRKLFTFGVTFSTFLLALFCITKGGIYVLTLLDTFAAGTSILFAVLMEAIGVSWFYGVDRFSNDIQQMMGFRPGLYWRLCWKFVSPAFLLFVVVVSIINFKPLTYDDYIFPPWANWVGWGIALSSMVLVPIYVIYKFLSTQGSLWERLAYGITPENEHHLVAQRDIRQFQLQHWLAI

For `CC[C@@H]1C[C@]1(NC(=O)[C@@H]1C[C@@H]2CN1C(=O)[C@H](C(C)(C)C)NC(=O)OCC(C)(C)CCCCc1cccc3c1CN(C3)C(=O)O2)C(=O)NS(=O)(=O)C1CC1`, the concentration at half-maximal activity (AC50) is 23.4 µM in assay [1], above 3 µM in assay [2] and above 30 µM in assay [3].

`CC(=O)NO` [ACETOHYDROXAMIC ACID]: the concentration at half-maximal activity (AC50) in assay [1], in [2] and in [3] was above 30 µM each time.

Regarding `CC(=O)NCCCCCC(=O)O` [ACEXAMIC ACID], the concentration at half-maximal activity (AC50) in [1], in assay [2] and in [3] was above 30 µM in each case.

In the case of `C=C(C)CNc1ccc(C(C)C(=O)O)cc1` (stereo not drawn) [ALMINOPROFEN], the AC50 in [1], in assay [2] and in [3] was above 30 µM throughout.

Regarding `C[C@H]1CN(C[C@H](Cc2ccccc2)C(=O)NCC(=O)O)CC[C@@]1(C)c1cccc(O)c1` [ALVIMOPAN], the AC50 in assay [1], in assay [2] and in [3] was above 30 µM each time.

For `C[C@H]1O[C@@H](O[C@H]2CC[C@@]3(C)[C@H](CC[C@@H]4[C@@H]3C[C@@H](O)[C@]3(C)[C@@H](C5=CC(=O)OC5)CC[C@]43O)C2)C[C@H](O)[C@@H]1O[C@H]1C[C@H](O)[C@H](O[C@H]2C[C@H](O)[C@H](O[C@@H]3O[C@H](CO)[C@@H](O)[C@H](O)[C@H]3O)[C@@H](C)O2)[C@@H](C)O1` [DESLANOSIDE], the AC50 in assay [1], in assay [2] and in [3] was above 30 µM in each case.

In the case of `CC[C@H]1OC(=O)[C@H](C)[C@@H](O[C@H]2C[C@@](C)(OC)[C@@H](O)[C@H](C)O2)[C@H](C)[C@@H](O[C@@H]2O[C@H](C)C[C@H](N(C)C)[C@H]2O)[C@](C)(O)C[C@@H](C)[C@@H]2N[C@@H](COCCOC)O[C@H]([C@H]2C)[C@]1(C)O` [DIRITHROMYCIN], the half-maximal activity concentration (AC50) in assay [1], in [2] and in assay [3] was above 30 µM each time.

`CCCCc1oc2ccc(NS(C)(=O)=O)cc2c1C(=O)c1ccc(OCCCN(CCCC)CCCC)cc1` [DRONEDARONE]: the half-maximal activity concentration (AC50) in assay [1] is above 30 µM; in assay [2], 7.76 µM; in [3] it was 3.31 µM.

Take `O=C(O)Cc1ccccc1Oc1ccc(Cl)cc1Cl` [FENCLOFENAC]: the AC50 in [4] is above 10 µM; at Vasopressin V2 receptor, above 30 µM; in assay [1] it was above 30 µM; in assay [2], 23.6 µM; on Cannabinoid receptor 1, above 30 µM; in assay [5] it was above 10 µM. Further, the AC50 at Histamine H2 receptor is above 10 µM; in assay [6], above 10 µM; in [7] it was above 30 µM; in assay [8], above 30 µM; in assay [9], above 30 µM; in [10], above 10 µM. Further, the half-maximal activity concentration (AC50) in assay [11] is above 10 µM; in [12], above 30 µM.

`CC(C)C(=O)Oc1ccc(CO)cc1[C@H](CCN(C(C)C)C(C)C)c1ccccc1` [FESOTERODINE]: the results for the AC50 in [1], in assay [2] and in assay [3] were above 30 µM, 0.354 µM and above 30 µM, respectively.

With `C[N+](C)(CCCCCC[N+](C)(C)C1c2ccccc2-c2ccccc21)C1c2ccccc2-c2ccccc21` [HEXAFLUORENIUM], the AC50 is above 30 µM in [1], 7.41 µM in assay [2] and 3.02 µM in [3].

Regarding `CCCCC(CC)CN1CN(CC(CC)CCCC)CC(C)(N)C1` (stereo not drawn) [HEXETIDINE], the AC50 in [1] is above 30 µM; in [2] it was 9.85 µM; in assay [3], 6.51 µM.

On to `Cc1cc(=O)oc2cc(O)ccc12` [HYMECROMONE], for which the half-maximal activity concentration (AC50) in [1], in assay [2] and in assay [3] was above 30 µM each time.

On to `COc1cc(C(C)=O)ccc1OCCCN1CCC(c2noc3cc(F)ccc23)CC1` [ILOPERIDONE], for which the AC50 is above 30 µM in assay [4]; above 10 µM in [1]; above 10 µM in assay [2]; above 30 µM at Cannabinoid receptor 1; 12.9 µM in assay [5]; above 30 µM in assay [6]. Also, the concentration at half-maximal activity (AC50) in assay [8] was above 30 µM; in [9], above 30 µM; in [10], 1.63 µM; in assay [11] it was above 30 µM.

On to `COc1c2occc2c(OC)c2c(=O)cc(C)oc12` [KHELLIN], for which the AC50 in assay [1], in [2] and in assay [3] was above 30 µM throughout.

On to `CC(C)[C@@H]1CC[C@@H](C)C[C@H]1O` [LEVOMENTHOL], for which the AC50 in assay [1], in assay [2] and in assay [3] was above 30 µM each time.

For `COC(=O)[C@@H](N)Cc1ccc(O)c(O)c1` [MELEVODOPA], the figures for the AC50 in [1], in [2] and in assay [3] were above 30 µM, 22.1 µM and above 30 µM, respectively.

Regarding `C[N+]1(C)CCCC(OC(=O)C(O)(c2ccccc2)c2ccccc2)C1` (stereo not drawn) [MEPENZOLATE], the AC50 is above 30 µM in [1], above 30 µM in assay [2] and 20.4 µM in [3].

Consider `C=N[C@@H](C(=O)N[C@@H]1C(=O)N2[C@@H]1SC(C)(C)[C@@H]2C(=O)O)c1ccccc1` [METAMPICILLIN], for which the half-maximal activity concentration (AC50) in assay [1], in assay [2] and in [3] was above 30 µM throughout.

As to `O=C(NNCS(=O)(=O)O)c1ccncc1` [METHANIAZIDE], the AC50 in assay [1], in assay [2] and in [3] was above 30 µM in each case.

`Cc1cc(=O)[nH]c(=S)[nH]1` [METHYLTHIOURACIL]: the AC50 in assay [1], in assay [2] and in [3] was above 30 µM in each case.

In the case of `CN(C)c1ccc(O)c2c1C[C@H]1C[C@H]3[C@H](N(C)C)C(O)=C(C(N)=O)C(=O)[C@@]3(O)C(O)=C1C2=O` [MINOCYCLINE], the concentration at half-maximal activity (AC50) in [1], in [2] and in assay [3] was above 30 µM throughout.

`O=C1Cc2cc(CCN3CCN(c4nsc5ccccc45)CC3)c(Cl)cc2N1` [ZIPRASIDONE]: the AC50 in assay [4] is above 10 µM; at Vasopressin V2 receptor, above 30 µM; in [1] it was above 30 µM; in assay [2], 12.9 µM; on Cannabinoid receptor 1, above 30 µM; in assay [5], above 10 µM. In addition, the AC50 at Histamine H2 receptor was above 10 µM; in assay [6], above 30 µM; in assay [7], above 30 µM; in assay [8] it was above 30 µM; in assay [9], above 30 µM; in assay [10], 0.89 µM. Besides, the half-maximal activity concentration (AC50) in [11] is above 10 µM; in assay [12] it was above 30 µM.
